Experimental data published in PubChem BioAssay (NCI).
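96-well plates; 48 h exposure; 5 concentrations. Endpoints by linear interpolation between flanking doses. Not reached: highest tested concentration assigned. GI50 marks 50% less growth. TGI is the concentration that stops growth completely.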 Where a SMILES comes first, the peptide text is derived from it. [ ]: non-standard residue; d: D form. The star is where a group is joined. Cbz = O=C(OCc1ccccc1)*; Boc = CC(C)(C)OC(=O)*; Aib = CC(C)(N)C(=O)O; OBn = c1ccc(CO*)cc1; OtBu = CC(C)(C)O*; βAla = NCCC(=O)O

Assays:
Assay in all cases: NCI-60 cell line screen, 48 h
BT-549 breast = test system: BT-549 breast
HL-60(TB) leukemia = test system: HL-60(TB) leukemia
KM12 colon = test system: KM12 colon
MDA-MB-435 = test system: MDA-MB-435
OVCAR-4 ovarian = test system: OVCAR-4 ovarian
RPMI-8226 leukemia = test system: RPMI-8226 leukemia
SF-295 CNS = test system: SF-295 CNS
SK-OV-3 ovarian = test system: SK-OV-3 ovarian
UACC-257 melanoma = test system: UACC-257 melanoma
CCRF-CEM leukemia = test system: CCRF-CEM leukemia

SMILES | TGI (BT-549 breast) [µM] | TGI (HL-60(TB) leukemia) [µM] | TGI (KM12 colon) [µM] | TGI (MDA-MB-435) [µM] | TGI (OVCAR-4 ovarian) [µM] | TGI (RPMI-8226 leukemia) [µM] | TGI (SF-295 CNS) [µM] | TGI (SK-OV-3 ovarian) [µM] | TGI (UACC-257 melanoma) [µM] | TGI (CCRF-CEM leukemia) [µM] | GI50 (BT-549 breast) [µM] | GI50 (CCRF-CEM leukemia) [µM] | GI50 (HL-60(TB) leukemia) [µM] | GI50 (KM12 colon) [µM] | GI50 (RPMI-8226 leukemia) [µM] | GI50 (SF-295 CNS) [µM] | GI50 (SK-OV-3 ovarian) [µM] | GI50 (UACC-257 melanoma) [µM] | GI50 (MDA-MB-435) [µM] | GI50 (OVCAR-4 ovarian) [µM]
CC(C)(C)OC(=O)CC(NC(=O)OC(C)(C)C)C(=O)NC(CCCCNC(=O)OCc1ccccc1)C(=O)NC(C)(C)C(=O)NCCC(=O)OCc1ccccc1 (stereo not drawn) (Boc-D(OtBu)K(Cbz)[Aib][βAla]-OBn; configuration not given here) | > 100 | > 100 | > 100 | > 100 | > 100 | > 100 | > 100 | > 100 |  |  |  |  |  |  |  |  |  |  |  | 
COc1cc(C2C3=C(COC3=O)OC(C)(C)Oc3cc4c(cc32)OCO4)cc(OC)c1OC (stereo not drawn) | > 100 | 1.26 | 14.8 | 0.5 | > 96.2 | > 87.3 | 0.532 | > 100 | > 100 |  |  |  |  |  |  |  |  |  |  | 
CCOC(=O)c1c(N2CCOCC2)[nH]c(=O)c(C(c2ccc(OC)cc2)c2c(O)c(C(=O)OCC)c(N3CCOCC3)[nH]c2=O)c1O | > 100 |  | > 100 | > 100 | > 100 | > 100 | > 100 | > 100 | > 100 | > 100 |  |  |  |  |  |  |  |  |  | 
C/C=C/[C@H]1O[C@@](OC)([C@@H](C)[C@H](O)[C@H](C)[C@H]2OC(=O)/C(OC)=C/C(C)=C/[C@@H](C)[C@@H](O)[C@@H](C)[C@@H](O)[C@H](C)C/C(C)=C/C=C/[C@@H]2OC)CC(OC2CC(O)C(OC(N)=O)C(C)O2)[C@@H]1C (stereo partly drawn) | 17.6 |  | 12.7 | < 0.01 | 18.3 | < 0.0378 | < 0.01 | 20.7 | < 0.0143 |  |  |  |  |  |  |  |  |  |  | 
NC(N)=N/N=C/c1nc2sccn2c1[N+](=O)[O-] | > 100 | 34.1 | 47.6 | 39.9 | 33.6 | > 100 | > 100 | > 100 | 31.7 |  |  |  |  |  |  |  |  |  |  | 
O=c1[nH]nc(Cc2ccc(Cl)cc2)n1O |  | > 100 | > 100 | > 100 | > 100 | > 100 | > 100 | > 100 | > 100 | > 100 |  |  |  |  |  |  |  |  |  | 
Cc1ccc2c(c1)OC1Nc3ccccc3C1=C2O (stereo not drawn) | 66.1 | 43.1 | > 100 | 95.9 | > 100 | > 100 | 60 | 64.3 | 69.3 |  |  |  |  |  |  |  |  |  |  | 
COC(=O)C(COC(=O)/C=C/c1ccc(OC(C)=O)c(OC(C)=O)c1)OC(=O)/C=C/c1ccc(OC(C)=O)c(OC(C)=O)c1 (stereo not drawn) | 33.5 |  | 30.8 | 23.9 | 35.1 | 66.4 | 33.2 |  | 29.9 | 50.6 |  |  |  |  |  |  |  |  |  | 
COc1ccc(NC2Oc3cc4c(cc3C(c3cc(OC)c(O)c(OC)c3)C2C)OCO4)cc1 (stereo not drawn) | > 100 | 4.51 | > 100 | 2.51 | > 100 | 12.9 | 60.5 |  | > 100 |  |  |  |  |  |  |  |  |  |  | 
Nc1nc2c(ncn2C2C=CC(CO)O2)c(=O)[nH]1 (stereo not drawn) | > 100 |  | > 100 | > 100 | > 100 | > 100 | > 100 |  | > 100 | > 100 |  |  |  |  |  |  |  |  |  | 
COC(=O)c1cncc2c1CC1C3(C(=O)OC)C=NC(C4C(CO)=CCC43)C21C (stereo not drawn) |  | > 100 | > 100 | > 100 | > 100 |  | > 100 |  | > 100 | > 100 |  |  |  |  |  |  |  |  |  | 
O=C(O)c1ccc(Nc2nc3cc(C(F)(F)F)ccc3nc2C(=O)O)cc1 | > 100 | > 100 | > 100 | > 100 | > 100 |  | > 100 |  |  |  |  |  |  |  |  |  |  |  |  | 
COc1ccc(OC)c2cc(Cc3ccc(N(C)C)cc3)c(=O)c(Cc3ccc(N(C)C)cc3)cc12 | > 100 |  | > 100 | > 100 | > 100 | 84.5 | > 100 | > 100 | > 100 | > 100 |  |  |  |  |  |  |  |  |  | 
O=C1NC(N/N=C\c2ccccc2)=N/C1=C/c1ccc(Cl)cc1 | 49.5 |  | 95.5 | > 100 | 31.4 | 59.7 | 78.8 | 43.4 | > 100 |  |  |  |  |  |  |  |  |  |  | 
COC(=O)C(C)Sc1nc2cc(Cl)ccc2s1 (stereo not drawn) | > 100 |  | > 100 | > 100 | > 100 | > 100 | > 100 | > 100 | > 100 | > 100 |  |  |  |  |  |  |  |  |  | 
CCOC(=O)c1sc2c(c1OC(=O)c1ccccc1)c(=O)n(-c1ccccc1)c(=S)n2-c1ccccc1 |  | > 100 | > 100 | 51.7 | 32 | > 100 | > 100 | > 100 | > 100 | > 100 |  |  |  |  |  |  |  |  |  | 
N#CC1=CNc2sccc2S1(=O)=O | > 100 |  | > 100 | > 100 | > 100 | > 100 | > 100 | > 100 | > 100 |  |  |  |  |  |  |  |  |  |  | 

SMILES | TGI (BT-549 breast) [µM] | TGI (HL-60(TB) leukemia) [µM] | TGI (KM12 colon) [µM] | TGI (MDA-MB-435) [µM] | TGI (OVCAR-4 ovarian) [µM] | TGI (RPMI-8226 leukemia) [µM] | TGI (SF-295 CNS) [µM] | TGI (SK-OV-3 ovarian) [µM] | TGI (UACC-257 melanoma) [µM] | TGI (CCRF-CEM leukemia) [µM] | GI50 (BT-549 breast) [µM] | GI50 (CCRF-CEM leukemia) [µM] | GI50 (HL-60(TB) leukemia) [µM] | GI50 (KM12 colon) [µM] | GI50 (RPMI-8226 leukemia) [µM] | GI50 (SF-295 CNS) [µM] | GI50 (SK-OV-3 ovarian) [µM] | GI50 (UACC-257 melanoma) [µM] | GI50 (MDA-MB-435) [µM] | GI50 (OVCAR-4 ovarian) [µM]
O=C(O)c1ccccc1/C=N\NC1=NCCCCN1 | > 100 |  | > 100 | > 100 | > 100 | > 100 | > 100 | > 100 | > 100 | > 100 |  |  |  |  |  |  |  |  |  | 
COC(=O)[C@@H]1N2C(=S)N(c3ccccc3)C(=O)[C@H]2SC1(C)C | > 100 |  | > 100 | > 100 | > 100 | > 100 | > 100 | > 100 | > 100 |  |  |  |  |  |  |  |  |  |  | 
CC(C)(C)OC(=O)N1C(OP(=O)(Oc2ccccc2)Oc2ccccc2)=COc2cccnc21 | > 100 | 36.6 | > 100 | > 100 | > 100 | 53.2 | > 100 | > 100 | > 100 |  |  |  |  |  |  |  |  |  |  | 
O=[As](O)(O)c1cc(N=Nc2ccc(-c3ccc(N=Nc4cc([As](=O)(O)O)c(O)cc4O)cc3)cc2)c(O)cc1O |  | > 67.6 | > 100 |  | > 56.8 | > 100 | > 100 | > 100 | > 100 | > 80 |  |  |  |  |  |  |  |  |  | 
OCCN=C1Nc2ccc(Cl)cc2C(=S)N2CSC[C@@H]12 |  |  | > 100 | > 100 | > 100 | > 100 | > 100 | > 100 |  |  |  |  |  |  |  |  |  |  |  | 
CCOC(=O)c1cn(-c2ccc(Cl)cc2)c(=O)n2c1nc1ccccc12 | > 100 |  | > 100 | > 100 | > 100 | > 100 | > 100 |  | > 100 | > 100 |  |  |  |  |  |  |  |  |  | 
O=C(N=Nc1ccccc1Br)NNc1ccccc1Br | > 100 | 86.7 |  | > 100 | > 100 | > 100 |  |  | > 100 | > 100 |  |  |  |  |  |  |  |  |  | 
COc1ccc2c(c1)CCc1c-2n(CCN(C)C)c2ccc(OC)cc12 | > 100 |  | 86.7 | 32.6 | 68.7 | 65.9 | > 100 | 87.1 | > 100 | 9.5 |  |  |  |  |  |  |  |  |  | 
NC(=O)CC(Nc1ncc2c(n1)-c1ccccc1OC2)C(=O)O (stereo not drawn) |  | 36.8 | > 100 | > 100 | > 100 | 82.5 | > 100 | > 100 | > 100 | > 100 |  |  |  |  |  |  |  |  |  | 
CC[N+](CC)=c1ccc2nc3c(cc(N)c4ccccc43)oc-2c1 | 2.41 | 0.326 | 0.666 |  |  | 0.399 | 0.288 | 2.7 | 3.05 |  | 1.11 | 0.183 | 0.134 | 0.247 | 0.0412 | 0.111 | 1.37 | 1.56 |  | 
COc1cc2ccnc3c2c(c1O)N(C)C=C3 | 22.9 |  | 40.2 | > 86.5 | 32.4 | > 100 | 28.6 | 27.4 | 32.5 | > 100 |  |  |  |  |  |  |  |  |  | 
C=C1C[C@]23C[C@@]1(O)CC[C@H]2[C@@]12C=C[C@H](O)[C@@](C)(C(=O)O1)[C@H]2[C@@H]3C(=O)O |  | > 100 | > 100 |  | > 100 | > 100 | > 100 | > 100 | > 100 | > 100 |  |  |  |  |  |  |  |  |  | 
COS(=O)c1cc(Cl)cc(Cl)c1O (stereo not drawn) |  | > 100 | > 100 |  | > 100 |  |  | > 100 | > 100 | > 100 |  |  |  |  |  |  |  |  |  | 
COc1cccc(-c2nc3sccn3c2-c2ccnc(NCCNC(=O)Nc3cccc(C(F)(F)F)c3)n2)c1 |  | 7.43 | 10.1 | 12.3 | 34.1 | 5.11 | 14.9 |  | 16.5 | > 100 |  | 3.43 | 2.92 | 3.36 | 1.92 | 2.8 |  | 4.34 | 2.95 | 3.78
CSC1SCC2C(=O)N(C)C3(CC3C)C(=O)OCC(NC(=O)c3nc4ccccc4cc3O)C(=O)NC(C)C(=O)N(C)C1C(=O)N(C)C1(CC1C)C(=O)OCC(NC(=O)c1nc3ccccc3cc1O)C(=O)NC(C)C(=O)N2C (stereo not drawn) |  | < 0.0001 | < 0.0001 | < 0.0001 | 0.000325 | < 0.0001 |  | 17.2 | < 0.0001 | < 0.0001 |  |  |  |  |  |  |  |  |  | 
O=C(NCCO)c1ccc(Cl)cc1 | > 100 |  | > 100 | > 100 | > 100 |  | > 100 |  | > 100 | 90.2 |  |  |  |  |  |  |  |  |  | 
